Reference: patent US20030170656A1, “Method of screening for factors that modulate gene expression” (Chiron Corporation, priority 1995, published 2003)

How the values were obtained:
Format in all cases: cell-based
[1] = system: c-fos mRNA in NIH3T3 cells; assay: c-fos induction by bDNA assay in NIH3T3 cells (small molecule pool screen with PDGFBB); details: bDNA against c-fos mRNA, read-out: concentration giving 50% of maximal c-fos induction
Description: Small molecule library pools are prepared as described above, and 48 such pools were marked and divided for screening. An aliquot of each pool (2 μM final concentration) was placed in a micro-well on a bed of NIH3T3 cells in a microwell and incubated at 37° C. for 45 minutes with 1 ηM PDGFBB.
Each well was assayed by induction of c-fos messenger by bDNA assay against c-fos mRNA. In a previous study (described in example 8), a bDNA assay detected induction of c-fos mRNA by less than 0.01 ηM of PDGFBB (PDGF β chain dimer). 1 ηM of PDGFBB gives 50% of maximal c-fos induction. As previously described, administration of PDGFBB to cells, including FTL cells, induces the transcription of the c-fos gene.
In this study, induction or reduction of the c-fos gene was measured by bDNA. Where an agonist was present in the small molecule library pool, c-fos induction was expected to occur at about the same level or greater as induction by administration of PDGFBB. Where an antagonist was present in the small molecule library pool, c-fos transcription was expected to be reduced perhaps to non-detectable levels. […]

[2] = system: serum responsive element (SRE)-luciferase construct in FTL cells; assay: SRE-luciferase reporter assay (luciferase assay) in NIH3T3 derived FTL cells; details: 4000 cells
Description: (§1) A construct comprising in operable linkage a luciferase reporter gene and the serum responsive element (SRE) was stably transfected into NIH3T3 derived FTL cells which were selected as the responsive cells. Plasmid DNAs from small library pools of 100 to 500 independent colonies per pool were constructed and in vitro transcribed into cRNAs. Each pool of cRNAs were injected into Xenopus laevis oocytes and cultured at 18° C. overnight. The next day, each oocyte was then cocultured with FTL cells transfected with the SRE-luciferase construct and incubated at 37° C. for three hours in a microwell. The oocytes were removed and induction of luciferase gene was assayed by luciferase assay, and also by bDNA assay against luciferase mRNA. The luciferase assay was sensitive to 4000 cells with a minimum concentration of 1 nM of PDGFBB (PDGF β chain dimer). The bDNA assay detected a lower concentration of library, with the ability to detect from 4000 cells less than 0.01 nM of PDGFBB.

[3] = system: c-fos mRNA in FTL cells; assay: bDNA assay against c-fos mRNA in NIH3T3 derived FTL cells
Description: To assay for a growth factor that stimulates the expression of the c-fos gene, NIH3T3 derived FTL cells were selected as the responsive cells. A library for screening is prepared from human tissue as described above for expression in Xenopus oocytes. Plasmid DNAs from small library pools of 100 to 500 independent colonies per pool were constructed and in vitro transcribed into cRNAs. Each pool of cRNAs were injected into Xenopus laevis oocytes and cultured at 18° C. overnight. The next day, each oocyte was then cocultured on a bed of NIH3T3 derived FTL cells in a microwell and incubated at 37° C. for three hours.
The oocytes were removed and induction of c-fos messenger was measured by bDNA assay against c-fos mRNA. […] In the present experiment, a bDNA assay detected a lower concentration of library, with the ability to detect from 4000 FTL cells less than 0.01 nM of PDGFBB (PDGF β chain dimer). As previously described, administration of PDGFBB to cells, including FTL cells, induces the transcription of the c-fos gene.

[4] = system: luciferase mRNA (SRE-luciferase construct) in FTL cells; assay: bDNA assay against luciferase mRNA in SRE-luciferase FTL cells; details: 4000 cells
Description: as §1

[5] = system: c-fos transcription in NIH3T3 cells; assay: Xenopus oocyte/NIH3T3 coculture, c-fos induction by bDNA assay; details: compared to non-stimulated NIH3T3 cells
Source text: Manual defolliculated Xenopus oocytes are excellent at expressing in vitro transcribed cRNA and its background c-fos induction activity is almost none. Taking advantage of the size of Xenopus oocytes, a coculture system using Xenopus oocytes and NIH3T3 cells was developed in microplates which allowed the detection of both diffusible and membrane-attached nondiffusible growth factors. However, it was shown that damaged oocytes produce significant c-fos induction in NIH3T3 cells. A repeatable condition was established, however, which was sensitive enough to detect PDGF c-sis activity secreted from an oocyte injected with 0.08 ng of PDGF c-sis cRNA. This sensitivity was shown allowing for detection of PDGF c-sis activity in a pool of 600 clones. Screening was then conducted of 350 pools of a mouse brain cDNA library with a diversity of an average of 150 clones per pool, and 100 pools of a Xenopus embryo library with a diversity of 80 clones per pool. Considering the biological variation between oocytes, each pool of cRNA was injected into three oocytes and subsequently yielded triplicate results.
Among these 450 pools, 61 pools were initially found positive. After multiple repeated experiments, 14 remained moderately positive. […] The nucleotide and translated protein sequence for clone 16.1 was determined, and is represented in SEQ ID NO. […]

Row | Molecule | EC50 [1] | minimum concentration detected by luciferase assay [2] | concentration detectable by bDNA assay against c-fos mRNA ([3]; 4000 FTL cells) | concentration inducing c-fos mRNA detected by bDNA assay ([3]; as restated in Example 9 from Example 8) | concentration detectable by bDNA assay against luciferase mRNA [4] | induction of c-fos transcription [5] | induction of c-fos transcription ([5]; listed as SEQ ID NO. 2)
1 | PDGFBB: PDGF β chain dimer | 1 nM | 1 nM | less than 0.01 nM | less than 0.01 ηM | less than 0.01 nM | – | –
2 | 16.1: 61 amino acid polypeptide of SEQ ID NO. 2, deconvoluted from pool 16.1, capable of inducing c-fos transcription in NIH3T3 cells (protein) MTLMVFKCSDNLLLIVVYAKVFPSTSCIHYQIYTCKFEVLLFSQHELKIFCNSARQGSSCL | – | – | – | – | – | 5 fold | about 5 fold
